Measured values: US20060105974A1, “Conjugates of photosensitizers and oligonucleotides for selective photochemiotherapy” (priority 2002, published 2006)
{Ce6} = chlorin e6 photosensitizer conjugate

What was measured:
sense oligonucleotides = test: Photo-oxidation of DHR123 to RH123 by Ω-sensitizers with sense and mismatch oligonucleotides; format: biochemical; conditions: irradiation 405±5 nm; for photochemically induced oxidation of DHR123: in the presence of the sense oligonucleotide; for reduction of oxidation capacity (photo-oxidation of DHR123), one base pair mismatch versus sense oligonucleotide / reduction of oxidation capacity (photo-oxidation of DHR123), two base pair mismatches versus sense oligonucleotide: RH123 fluorescence at 529 nm; for reduction of oxidation capacity (photo-oxidation of DHR123), two base pair mismatches versus sense oligonucleotide: two base pair mismatch sense oligonucleotide
Experimental: (§1) The selective photosensitizing action of the different Ω-sensitizers described in Example 1 was tested in vitro against sense oligonucleotides, and sense oligonucleotides having one and two base mismatches, respectively. For this purpose oligonucleotides with sequences 5′-CAAAGGGAGGAAACCTAGCA-3′ (sense), 5′-CAAAGGGAGGTAACCTAGCA-3′ (sense 1 bp mismatch), and 5′-CAAAGGGAAGTAACCTAGCA-3′ (sense 2 bp mismatch) were synthesized using standard automated phosphoramidite chemistry. Oligonucleotides were dissolved in 2 ml of a solution containing 10 mM Tris-HCl and 2 mM MgCl2 to give a final concentration of 0.8 μM in a quartz cuvette. To this solution 1 ml Dihydrorhodamine 123 (DHR123) (Molecular Probes, Eugene, USA) (40 μM) dissolved in 10 mM Tris-HCl was added. DHR123 is a non-fluorescent molecule that in the presence of oxygenating species undergoes oxygenation to give the fluorescent dye rhodamine 123 having an absorption maximum at 507 nm and a fluorescence maximum at 529 nm. 1 ml of Ω-sensitizer (800 nM) containing solution was added and the final solution was stored in the dark at 37° C. for 20 minutes. Then the solution was irradiated at 405±5 nm with electromagnetic radiation from a filtered Hg-Arc lamp. The RH123 fluorescence intensity at 529 nm was measured every 60 seconds using a Perkin Elmer spectrofluorometer (Model LS50B, Perkin Elmer, Rotkreuz, CH)

[1] = system: target sequence (mam gene sequence); test: Ω-sensitizer-induced photo-oxidation of DHR123 as a function of target concentration; format: biochemical; conditions: 10 J/cm^2
Source text: In order to test the possibility of using nano particles as the quenching moiety, oligonucleotides labeled with a photosensitive moiety at the 3′ terminus, where labeled at the 5′ terminus with amino modified gold nanoparticles. The mam gene sequence S′-CGGATGAAACTCTGAGCAATGTCTGCAGTTCTGTGAGCCAAAG-3′ (GeneBank accession No. AF015224) was coupled to the complementary stem sequences CCA AGC and GCT TGG at its 5′ and 3′ termini, respectively. The sequence was constructed using fully automated DNA synthesis as described in Example 1. The 3′ end contained an amino group, while the 5′ end was equipped with a six carbon spacer thiol group protected by a trityl moiety (Glen Research, Sterling, Va.) using standard methods. Following cleavage with 28% ammonium hydroxide, oligonucleotides were washed and purified as described above. The 3′ end photosensitive moiety labeled oligonucleotide was prepared and purified using the NHS ester of pheophorbide a as described in Example 1. Then the trityl protection group was removed by adding 0.15M silver nitrate solution to the labeled oligonucleotide for 1 hour. To this mixture 0.15M dithiothreitol (DTT) was added for 10 minutes. After spinning at 10000 rpm the supernatant was transferred to another tube. 400 pmol of this oligonucleotide were then suspended in 180 μl of water and immediately reacted with 6 nmol of monomaleimido gold particles (Ø=1.4 nm) (Nanoprobes) in aqueous 20 mM NaH2PO4, 150 mM NaCl, 1 mM ethylenediamine […] (EDTA) Buffer, pH 6.4, containing 10% isopropanol at 4° C. for 24 hours.
To the solution containing the Ω-sensitizer, 5′ (gold particle)-S—(CH2)6— CCAAGCCGGATGAAACTCTGAGCAATGTCTGCAGTTCTGTGAGCCAAAGCTTGG-(pheophorbide a)-3′, target and one base pair mismatch oligonucleotides were added at different concentrations. After adding appropriate quantities of DHR123 (see Example 1), the solutions were irradiated at 405 nm with electromagnetic radiation doses of 10 J/cm^2 and the fluorescence of rhodamine 123 was measured as described above as a function of the target concentration.

sense oligonucleotide = test: Intrinsic fluorescence emission of the Ω-sensitizer after excitation at 405 nm with sense and mismatch oligonucleotides; format: binding; conditions: excitation 405 nm; two base pair mismatch oligonucleotide versus sense oligonucleotide
Experimental: as §1, with “1 ml of Ω-sensitizer (800 nM) containing solution was added and the final solution was stored in the dark at 37° C. for 20 minutes. Then the solution was irradiated at 405±5 nm with electromagnetic radiation from a filtered Hg-Arc lamp.” left out
Furthermore, the intrinsic fluorescence of the pheophorbide a labeled Ω-sensitizer was used to further underline the selectivity of these new photochemotherapeutic agents.

[2] = system: GEO human colon cancer cells; test: MTT cell viability assay after oligonucleotide incubation with or without irradiation; format: cell-based; conditions: one day after incubation, no irradiation
Experimental: To test the possibility of inhibiting cell growth by targeting the EGFR mRNA with Ω-sensitizers, mixed backbone oligonucleotides similar to those described in Example 1 were prepared, using methods described in Example 5. The sequences tested were:
GEO human colon cancer cells known to express approximately about 40000 functional EGFRs were purchased from ATCC (Rockville, Md., USA) and grown as described. Culture was performed in the presence of 10% fetal calf serum (FCS) and penicillin/streptomycin at 37° C. and 6% CO2 in a humid environment. For measurement purposes, the cells were subcultured in 48-well dishes (Costar 3548, Integra Biosiences, Cambridge, Mass., USA) to give 10^5 cells/well 72 hours prior to incubation with the oligonucleotides. […]
The cell viability was tested by means of an MTT assay. This technique allows quantification of cell survival after cytotoxic insult by testing the enzymatic acitivity of the mitochondria. […] The optical density of the product was quantified by its absorption at 540 nm using a 96-well ELISA plate reader (iEMS Reader MF, Labsystems, USA). […] The absorption of each residue was determined at 540 nm using the plate reader. The absorbance readings from treated cells was divided by the absorbance readings from the control cells in order to calculate the fraction of surviving cells.

Substance | photochemically induced oxidation of DHR123 (sense oligonucleotides) | reduction of oxidation capacity (photo-oxidation of DHR123), one base pair mismatch versus sense oligonucleotide (sense oligonucleotides) | reduction of oxidation capacity (photo-oxidation of DHR123), two base pair mismatches versus sense oligonucleotide (sense oligonucleotides) [fold] | other results
5′-(chlorin)-GCGATGCTAGGTTTCCTCCCTTTGTCGC-(chlorin)-3′ (GCGATGCTAGGTTTCCTCCCTTTGTCGC; DNA, linkages osossooooossooooooooossssso (s phosphorothioate, o phosphodiester), 5' {Ce6}, 3' {Ce6}, methylation of C not given here) [chlorin e6 labeled Ω-sensitizer] | most efficient | about 5 fold | ~20 | 
5′ (gold particle)-S—(CH2)6— CCAAGCCGGATGAAACTCTGAGCAATGTCTGCAGTTCTGTGAGCCAAAGCTTGG-(pheophorbide a)-3′ (CCAAGCCGGATGAAACTCTGAGCAATGTCTGCAGTTCTGTGAGCCAAAGCTTGG; hairpin, 5' gold particle via hexyl thiol, 3' pheophorbide a, partial phosphorothioate, further chemistry not given here) |  |  |  | concentrations of the one base pair mismatched oligonucleotide at which photodynamic action can be observed ([1]; 405 nm): only very high concentrations; concentration of the target sequence at which the RH123 fluorescence intensity reaches its maximum ([1]; irradiated at 405 nm, RH123 fluorescence at 529 nm): about 0.5 μM; RH123 fluorescence with oligonucleotide not complementary to the TCS ([1]; one base pair mismatched oligonucleotide at about 0.5 μM, 405 nm): no fluorescence is detectable
5′-(pheo a)-GCGATGCTAGGTTTCCTCCCTTTGTCGC-(pheo a)-3′ (GCGATGCTAGGTTTCCTCCCTTTGTCGC; pheophorbide a at both ends, partial phosphorothioate, pattern not given here) [pheophorbide a labeled Ω-sensitizer] | most efficient | about 5 fold | ~20 | fluorescence of the photosensitiser pheophorbide a (intrinsic fluorescence of the Ω-sensitizer) (sense oligonucleotide): significant reduction; RH123 fluorescence intensities achieved, compared with the chlorin e6 labeled Ω-sensitizer (sense oligonucleotides; fluorescence at 529 nm): higher fluorescence intensities
5′ (chlorin e6) -GC*G A*CT GA*C TGC CA*A C*TA TG*A* ACA T*C*G C-(chlorin e6)3′ [b)] |  |  |  | cell viability (mitochondrial activity, MTT) in the dark [2]: only slightly reduced
